Key:
Assay in all cases: relative viability (nuclei count vs DMSO), 5 days (fraction); higher = more cells survive
NCI-H1975 = system: NCI-H1975
Summary of the method: (§1)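 Lung cancer cell lines, seeded in 1536-well plates, were treated the following day by pin tool with a single drug or with five library-drug doses (not always all listed) in √10 steps on top of a fixed anchor-drug dose. Cells were fixed and nuclei stained in one step after 5 days, and nuclei were counted. Relative viability is the nuclei count for treated wells divided by that for vehicle wells, reported as medians of duplicate plates.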

HOP-62 = system: HOP-62
Summary of the method: as §1

NCI-H1755 = system: NCI-H1755
Summary of the method: as §1

NCI-H1915 = system: NCI-H1915
Summary of the method: as §1

NCI-H2347 = system: NCI-H2347
Summary of the method: as §1

NCI-H2228 = system: NCI-H2228
Summary of the method: as §1

NCI-H522 = system: NCI-H522
Summary of the method: as §1

LOU-NH91 = system: LOU-NH91
Summary of the method: as §1

RERF-LC-KJ = system: RERF-LC-KJ
Summary of the method: as §1

NCI-H460 = system: NCI-H460
Summary of the method: as §1

LC-2-ad = system: LC-2-ad
Summary of the method: as §1

A-427 = system: A-427
Summary of the method: as §1

PC-3 [JPC-3] = system: PC-3 [JPC-3]
Summary of the method: as §1

NCI-H2126 = system: NCI-H2126
Summary of the method: as §1

LXF-289 = system: LXF-289
Summary of the method: as §1

SW 1573 = system: SW 1573
Summary of the method: as §1

HCC-15 = system: HCC-15
Summary of the method: as §1

NCI-H2342 = system: NCI-H2342
Summary of the method: as §1

NCI-H1734 = system: NCI-H1734
Summary of the method: as §1

SK-LU-1 = system: SK-LU-1
Summary of the method: as §1

NCI-H358 = system: NCI-H358
Summary of the method: as §1

HCC-78 = system: HCC-78
Summary of the method: as §1

NCI-H647 = system: NCI-H647
Summary of the method: as §1

COc1cc(N2CCC(C(N)=O)CC2)ccc1Nc1nc(N)c(Cl)c(Nc2ccccc2S(=O)(=O)C(C)C)n1 [HG-5-88-01] + O=C(CCCCCCC(=O)Nc1ccccc1)NO [Vorinostat] (partner 1 µM)
relative viability (NCI-H1975; first compound 0.04 µM): 0.734
relative viability (NCI-H1975; first compound 0.1265 µM): 0.711
relative viability (NCI-H1975; first compound 0.4 µM): 0.689
relative viability (NCI-H1975; first compound 1.265 µM): 0.612
relative viability (NCI-H1975; first compound 4 µM): 0.35
relative viability (HOP-62; first compound 0.04 µM): 0.579
relative viability (HOP-62; first compound 0.1265 µM): 0.799
relative viability (HOP-62; first compound 0.4 µM): 0.611
relative viability (HOP-62; first compound 1.265 µM): 0.728
relative viability (HOP-62; first compound 4 µM): 0.668
relative viability (NCI-H1755; first compound 0.04 µM): 0.79
relative viability (NCI-H1755; first compound 0.1265 µM): 0.804
relative viability (NCI-H1755; first compound 0.4 µM): 0.715
relative viability (NCI-H1755; first compound 1.265 µM): 0.748
relative viability (NCI-H1755; first compound 4 µM): 0.744
relative viability (NCI-H1915; first compound 0.04 µM): 0.476
relative viability (NCI-H1915; first compound 0.1265 µM): 0.525
relative viability (NCI-H1915; first compound 0.4 µM): 0.525
relative viability (NCI-H1915; first compound 1.265 µM): 0.57
relative viability (NCI-H1915; first compound 4 µM): 0.386
relative viability (NCI-H2347; first compound 0.04 µM): 0.52
relative viability (NCI-H2347; first compound 0.1265 µM): 0.544
relative viability (NCI-H2347; first compound 0.4 µM): 0.731
relative viability (NCI-H2347; first compound 1.265 µM): 0.553
relative viability (NCI-H2347; first compound 4 µM): 0.577
relative viability (NCI-H2228; first compound 0.04 µM): 0.731
relative viability (NCI-H2228; first compound 0.1265 µM): 0.421
relative viability (NCI-H2228; first compound 0.4 µM): 0.3
relative viability (NCI-H2228; first compound 1.265 µM): 0.348
relative viability (NCI-H2228; first compound 4 µM): 0.379
relative viability (NCI-H522; first compound 0.04 µM): 0.923
relative viability (NCI-H522; first compound 0.1265 µM): 0.855
relative viability (NCI-H522; first compound 0.4 µM): 0.784
relative viability (NCI-H522; first compound 1.265 µM): 0.667
relative viability (NCI-H522; first compound 4 µM): 0.671
relative viability (LOU-NH91; first compound 0.04 µM): 0.869
relative viability (LOU-NH91; first compound 0.1265 µM): 0.823
relative viability (LOU-NH91; first compound 0.4 µM): 0.723
relative viability (LOU-NH91; first compound 1.265 µM): 0.508
relative viability (LOU-NH91; first compound 4 µM): 0.469
relative viability (RERF-LC-KJ; first compound 0.04 µM): 0.73
relative viability (RERF-LC-KJ; first compound 0.1265 µM): 0.703
relative viability (RERF-LC-KJ; first compound 0.4 µM): 0.624
relative viability (RERF-LC-KJ; first compound 1.265 µM): 0.691
relative viability (RERF-LC-KJ; first compound 4 µM): 0.405
relative viability (NCI-H460; first compound 0.04 µM): 0.72
relative viability (NCI-H460; first compound 0.1265 µM): 0.737
relative viability (NCI-H460; first compound 0.4 µM): 0.678
relative viability (NCI-H460; first compound 1.265 µM): 0.783
relative viability (NCI-H460; first compound 4 µM): 0.595
relative viability (LC-2-ad; first compound 0.04 µM): 0.804
relative viability (LC-2-ad; first compound 0.1265 µM): 0.75
relative viability (LC-2-ad; first compound 0.4 µM): 0.745
relative viability (LC-2-ad; first compound 1.265 µM): 0.674
relative viability (LC-2-ad; first compound 4 µM): 0.579
relative viability (A-427; first compound 0.04 µM): 0.892
relative viability (A-427; first compound 0.1265 µM): 0.859
relative viability (A-427; first compound 0.4 µM): 0.884
relative viability (A-427; first compound 1.265 µM): 0.912
relative viability (A-427; first compound 4 µM): 0.726
relative viability (PC-3 [JPC-3]; first compound 0.04 µM): 0.879
relative viability (PC-3 [JPC-3]; first compound 0.1265 µM): 0.756
relative viability (PC-3 [JPC-3]; first compound 0.4 µM): 0.58
relative viability (PC-3 [JPC-3]; first compound 1.265 µM): 0.724
relative viability (PC-3 [JPC-3]; first compound 4 µM): 0.303
relative viability (NCI-H2126; first compound 0.04 µM): 0.653
relative viability (NCI-H2126; first compound 0.1265 µM): 0.813
relative viability (NCI-H2126; first compound 0.4 µM): 0.713
relative viability (NCI-H2126; first compound 1.265 µM): 0.594
relative viability (NCI-H2126; first compound 4 µM): 0.456
relative viability (LXF-289; first compound 0.04 µM): 0.93
relative viability (LXF-289; first compound 0.1265 µM): 0.754
relative viability (LXF-289; first compound 0.4 µM): 0.826
relative viability (LXF-289; first compound 1.265 µM): 0.847
relative viability (LXF-289; first compound 4 µM): 0.822
relative viability (SW 1573; first compound 0.04 µM): 0.657
relative viability (SW 1573; first compound 0.1265 µM): 0.896
relative viability (SW 1573; first compound 0.4 µM): 0.816
relative viability (SW 1573; first compound 1.265 µM): 0.755
relative viability (SW 1573; first compound 4 µM): 0.851
relative viability (HCC-15; first compound 0.04 µM): 0.822
relative viability (HCC-15; first compound 0.1265 µM): 0.916
relative viability (HCC-15; first compound 0.4 µM): 0.761
relative viability (HCC-15; first compound 1.265 µM): 0.833
relative viability (HCC-15; first compound 4 µM): 0.786
relative viability (NCI-H2342; first compound 0.04 µM): 0.654
relative viability (NCI-H2342; first compound 0.1265 µM): 0.961
relative viability (NCI-H2342; first compound 0.4 µM): 0.737
relative viability (NCI-H2342; first compound 4 µM): 0.945
relative viability (NCI-H1734; first compound 0.04 µM): 0.969
relative viability (NCI-H1734; first compound 0.1265 µM): 0.871
relative viability (NCI-H1734; first compound 0.4 µM): 0.833
relative viability (NCI-H1734; first compound 1.265 µM): 0.773
relative viability (NCI-H1734; first compound 4 µM): 0.795
relative viability (SK-LU-1; first compound 0.04 µM): 0.783
relative viability (SK-LU-1; first compound 0.1265 µM): 0.82
relative viability (SK-LU-1; first compound 0.4 µM): 0.789
relative viability (SK-LU-1; first compound 1.265 µM): 0.773
relative viability (SK-LU-1; first compound 4 µM): 0.547
relative viability (NCI-H358; first compound 0.04 µM): 0.666
relative viability (NCI-H358; first compound 0.1265 µM): 0.602
relative viability (NCI-H358; first compound 0.4 µM): 0.544
relative viability (NCI-H358; first compound 1.265 µM): 0.155
relative viability (NCI-H358; first compound 4 µM): 0.182
relative viability (HCC-78; first compound 0.04 µM): 0.467
relative viability (HCC-78; first compound 0.1265 µM): 0.357
relative viability (HCC-78; first compound 0.4 µM): 0.356
relative viability (HCC-78; first compound 1.265 µM): 0.206
relative viability (HCC-78; first compound 4 µM): 0.217
relative viability (NCI-H647; first compound 0.04 µM): 0.522
relative viability (NCI-H647; first compound 0.1265 µM): 0.813
relative viability (NCI-H647; first compound 1.265 µM): 0.774
relative viability (NCI-H647; first compound 4 µM): 0.86

Source: the supplement of paper PMC10307832
